Laboratory results from PMC6182421, “De novo coiled-coil peptides as scaffolds for disrupting protein–protein interactions” (Chemical Science, 2018).

How the values were obtained:
[1] = target: T1, MCL-1/FITC-BID (Homo sapiens, UniProt Q07820); experiment: Fluorescence anisotropy competition assay, MCL-1/FITC-BID; type: binding; conditions: for Displacement of FITC-BID from MCL-1 (in words) / IC50 MCL-1/BID: 150 nM MCL-1, 25 nM FITC-BID; for IC50 MCL-1/BID: Table 2, 21 °C, Tris buffer pH 7.4 + 0.01% Triton-X-100, 20-21 h incubation, triplicate
T1 construct: made in house

[2] = Circular dichroism spectroscopy and thermal denaturation; type: physicochemical; conditions: for TM (midpoint of thermal denaturation): MRE222 monitored 5 to 90 °C at 40 °C h^–1, PBS pH 7.4, 50 μM of each peptide; for % helicity: from MRE222, 20 °C, calculation per ref 68
Excerpt: (A & B) CC-Di (pale green), CC-Di_S (lime), CC-Di_E1 (green), CC-Di_E2 (olive). (C & D) CC-Di-A (pink), CC-Di-B (cyan), CC-Di-A : CC-Di-B mixture (purple). (E & F) CC-Di-A_S (red), CC-Di-B (cyan), CC-Di-A_S : CC-Di-B mixture (brown). (G & H) CC-Di-A (pink), CC-Di-B_S (blue), CC-Di-A : CC-Di-B_S mixture (indigo). For heteromeric assemblies (i.e. Panels C–H) the theoretical spectra expected should the pairs of peptides not interact are depicted by grey dashes. Conditions: all experiments were performed in phosphate-buffered saline (PBS; pH 7.4) at 50 μM concentration of each peptide. Equilibrium CD spectra were recorded at 20 °C.
CD spectra were collected using a JASCO J810 spectropolarimeter coupled to a Peltier temperature controller. Peptide-containing solutions were freshly prepared in PBS (pH 7.4) with concentrations calculated from UV absorption at 280 nm (ε(Tyr) = […]).[78] Samples were examined at 50 μM concentration for lone peptides and 50 + 50 μM for two peptide heterodimeric examples, in a 1 mm quartz cuvette. […] Thermal denaturation experiments were conducted by ramping temperature from 5 to 90 °C at 40 °C h^–1. Full spectra (260–190 nm, 5 scans) were recorded at 5 °C and 20 °C, while the CD signal at 222 nm was recorded across the full temperature range at 1 °C intervals (1 nm interval, 1 nm bandwidth, 16 s response time).

[3] = Sedimentation-equilibrium analytical ultracentrifugation; type: physicochemical; conditions: AUC, relative to monomer molecular mass, 20 °C, PBS, 50 μM of each peptide
Method: Sedimentation equilibrium experiments were prepared in PBS (137 mM NaCl, 2.7 mM KCl, 8.2 mM Na2HPO4 and 1.8 mM KH2PO4) at 50 μM peptide concentration for homomeric assemblies and 50 μM peptide concentration of both peptides for heteromeric assemblies and to 120 μL. The reference channel was loaded with 130 μL of PBS solution. Equilibrium distributions were measured twice per speed, in 4 krpm increments, and with rotor speeds from 40 to 60 krpm. Data were fitted to single ideal species models using Ultrascan II (; http://www.ultrascan.uthscsa.edu). […] 95% confidence limits were obtained by Monte Carlo analysis of the fits. The partial specific volume for each of the peptides and the buffer density were calculated using Ultrascan II.
Beckman Proteomelab XL -I analytical ultracentrifuge u sing an An -60 Ti rotor and 2-channel centrepiec es.
Sedimentation equilibrium experiments were made up in PBS (137 mM NaCl, 2.7 mM KCl, 8.2 mM
Na2HP O4 and 1.8 mM KH2PO4) at 50 µM peptide concentration for homomeric assemblies and 50 µM
peptide concentration of both peptides for heteromeric assemblies and to 120 µL. The referenc e channel
was loaded with 130 µL of PBS solution. Equilibrium distributions were measured twice per speed, in 4
krpm increments, and with rotor speeds from 40 to 60 krpm. Data were fitted to single ideal species models […]
were calculated using Ultrascan II.

[4] = target: T2, BCL-xL/FITC-BID (Homo sapiens, UniProt Q07817, DEL27-82); experiment: Fluorescence anisotropy competition assay, BCL-xL/FITC-BID; type: binding; conditions: competition titration, 20-21 h incubation
T2 construct: made in house

[5] = system: hDM2/Flu-p53; type: binding; conditions: read-out: IC50, inhibition of Flu-p53/hDM2 (positive control)
[6] = PBS pH 7.4, 50 μM of each peptide

T1 sequence (Q07820 173-327 limits assumed): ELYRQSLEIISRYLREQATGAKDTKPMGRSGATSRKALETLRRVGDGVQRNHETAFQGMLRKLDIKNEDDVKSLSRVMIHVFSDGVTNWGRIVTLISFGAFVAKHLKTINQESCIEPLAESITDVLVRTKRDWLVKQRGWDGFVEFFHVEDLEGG
T2 sequence (Q07817 with tags, fused parts or gaps DEL27-82 limits assumed, species assumed): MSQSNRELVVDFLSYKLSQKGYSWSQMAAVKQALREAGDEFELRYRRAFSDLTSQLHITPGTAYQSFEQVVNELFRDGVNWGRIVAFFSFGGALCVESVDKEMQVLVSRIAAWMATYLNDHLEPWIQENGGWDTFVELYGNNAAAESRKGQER

Compound	Displacement of FITC-BID from MCL-1 (in words) [1]	IC50 MCL-1/BID [1]	TM (midpoint of thermal denaturation) [2]	% helicity [2, 6] [%]	other results
Ac-G KIAALKQ KIAALKK KNAALKQ KIAALKQ GYG-NH [CC-Di-B, basic peptide of the obligate heterodimer CC-Di-AB]	neither of the free peptides, CC-Di-B or CC-Di-B_S, competed with FITC-BID	No response	38 °C	71	
Ac-G EIAALKQ EIAALKK ENAALKQ EIAALKQ GYG-NH [CC-Di, de novo designed homodimeric coiled-coil peptide, unmodified scaffold]	did not displace FITC-BID	No response	75 °C	90	Oligomer state [3]: 1.96
Ac-G KIAALKQ KILRLIG DNVALKQ KIAALKQ GYG-NH [CC-Di-B_S, basic peptide with the short motif graft that should partner peptide CC-Di-A]	neither of the free peptides, CC-Di-B or CC-Di-B_S, competed with FITC-BID	No response	27 °C	46	
Ac-G EIAALEQ EIAALEK ENAALEQ EIAALEQ GYG-NH [CC-Di-A, acidic peptide of the obligate heterodimer CC-Di-AB]	does not bind MCL-1	No response	NA (<0) °C	19	MRE222 ([2]; CD at 222 nm, 20 °C, PBS pH 7.4, 50 μM of each peptide): –6577 deg cm^2 dmol res^–1
Ac-GEILALKQEILRLIGDNVALKQEILNLKQGYG-NH2 [CC-Di_E1]					IC50 [1]: 700 ± 50 nM
Ac-GEIAALKQEILRLIGDNVALKQEIAALKQGYG-NH2 [CC-Di_S]					Inhibition of BCL-xL/FITC-BID (in words) [4]: inconclusive
COc1ccc(C2=N[C@@H](c3ccc(Cl)cc3)[C@@H](c3ccc(Cl)cc3)N2C(=O)N2CCNC(=O)C2)c(OC(C)C)c1 [Nutlin-3a]					IC50 [5]: 273 ± 41 nM
